Here are results for 25 compounds from patent US20070249670A1, “Glycogen Phosphorylase Inhibitor Compounds and Pharmaceutical Compositions Thereof” (SMITHKLINE BEECHAM CORPORATION, priority 2004, published 2007).

The test addresses T1, human liver glycogen phosphorylase a (HLGPa) (Homo sapiens, UniProt P06737).
T1 construct: creating a full-length cDNA fused at the 5′ end to codons for methionine-glycine-alanine-histidine; 6xHis tag (leader Met-Gly-Ala-His6-Gly-Gly) (N); made in house; host or cells: E. coli (bacterial expression plasmid pTXK1007LTev)
T1 sequence (P06737 2-847 limits assumed): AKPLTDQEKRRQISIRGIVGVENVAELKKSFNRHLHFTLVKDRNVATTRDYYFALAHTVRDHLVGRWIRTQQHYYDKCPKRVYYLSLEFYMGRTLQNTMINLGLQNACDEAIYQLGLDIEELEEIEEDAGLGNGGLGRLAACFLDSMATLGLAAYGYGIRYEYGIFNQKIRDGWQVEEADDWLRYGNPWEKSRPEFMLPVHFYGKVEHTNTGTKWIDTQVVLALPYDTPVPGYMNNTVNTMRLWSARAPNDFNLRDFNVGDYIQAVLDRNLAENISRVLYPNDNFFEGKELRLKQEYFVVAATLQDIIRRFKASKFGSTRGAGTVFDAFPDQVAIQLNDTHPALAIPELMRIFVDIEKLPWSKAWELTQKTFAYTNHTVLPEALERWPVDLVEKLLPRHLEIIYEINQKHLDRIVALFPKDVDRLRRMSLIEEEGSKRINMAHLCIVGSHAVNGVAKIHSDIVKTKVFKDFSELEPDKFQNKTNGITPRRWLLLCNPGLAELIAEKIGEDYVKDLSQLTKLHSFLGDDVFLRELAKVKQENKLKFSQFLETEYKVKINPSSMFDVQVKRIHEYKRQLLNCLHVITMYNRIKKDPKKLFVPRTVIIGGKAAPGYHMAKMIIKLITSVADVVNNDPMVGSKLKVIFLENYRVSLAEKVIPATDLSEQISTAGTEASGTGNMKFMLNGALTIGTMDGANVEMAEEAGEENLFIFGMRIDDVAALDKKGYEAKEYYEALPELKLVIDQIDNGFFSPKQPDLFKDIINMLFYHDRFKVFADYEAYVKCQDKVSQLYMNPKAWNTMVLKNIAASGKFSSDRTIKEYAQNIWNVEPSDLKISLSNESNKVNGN
Briefly: Human liver glycogen phosphorylase a enzymatic activity assay (coupled, fluorescent resorufin readout, with and without 10 mM glucose). The class given is biochemical. To be noted: human liver glycogen phosphorylase a enzymatic activity assay.

On to `O=C(Nc1sc(-c2cccnc2)cc1C(=O)O)Nc1c(Cl)cccc1Cl` [Example 414, 2-({[(2,6-dichlorophenyl)amino]carbonyl}amino)-5-(3-pyridinyl)-3-thiophenecarboxylic acid], for which the IC50 turned out to be 2720 nM.
The result for `O=C(Nc1sc(-c2cccnc2)cc1C(=O)N[C@H](C(=O)O)C1CCCCC1)Nc1c(Cl)cccc1Cl` [Example 415, (2S)-cyclohexyl({[2-({[(2,6-dichlorophenyl)amino]carbonyl}amino)-5-(3-pyridinyl)-3-thienyl]carbonyl}amino)ethanoic acid] reads 770 nM.
In the case of `COc1cccc(-c2cc(C(=O)O)c(NC(=O)Nc3c(Cl)cccc3Cl)s2)c1` [Example 416, 2-({[(2,6-dichlorophenyl)amino]carbonyl}amino)-5-[3-(methyloxy)phenyl]-3-thiophenecarboxylic acid] it was 4130 nM; in that of `COc1cccc(-c2cc(C(=O)N[C@H](C(=O)O)C3CCCCC3)c(NC(=O)Nc3c(Cl)cccc3Cl)s2)c1` [Example 417, (2S)-cyclohexyl[({2-({[(2,6-dichlorophenyl)amino]carbonyl}amino)-5-[3-(methyloxy)phenyl]-3-thienyl}carbonyl)amino]ethanoic acid], 360 nM.
The result for `O=C(Nc1sc(-c2ccc(F)cc2)cc1C(=O)O)Nc1c(Cl)cccc1Cl` [Example 418, 2-({[(2,6-dichlorophenyl)amino]carbonyl}amino)-5-(4-fluorophenyl)-3-thiophenecarboxylic acid] reads 2970 nM; that for `O=C(Nc1sc(-c2ccc(F)cc2)cc1C(=O)N[C@H](C(=O)O)C1CCCCC1)Nc1c(Cl)cccc1Cl` [Example 419, (2S)-cyclohexyl({[2-({[(2,6-dichlorophenyl)amino]carbonyl}amino)-5-(4-fluorophenyl)-3-thienyl]carbonyl}amino)ethanoic acid], 600 nM; that for `Cc1cc(F)ccc1-c1cc(C(=O)O)c(NC(=O)Nc2c(Cl)cccc2Cl)s1` [Example 420, 2-({[(2,6-dichlorophenyl)amino]carbonyl}amino)-5-(4-fluoro-2-methylphenyl)-3-thiophenecarboxylic acid], 5640 nM.
Regarding `Cc1cc(F)ccc1-c1cc(C(=O)N[C@H](C(=O)O)C2CCCCC2)c(NC(=O)Nc2c(Cl)cccc2Cl)s1` [Example 421, (2S)-cyclohexyl({[2-({[(2,6-dichlorophenyl)amino]carbonyl}amino)-5-(4-fluoro-2-methylphenyl)-3-thienyl]carbonyl}amino)ethanoic acid], 1390 nM corresponded to half-maximal inhibition (IC50).
The result for `Cn1cc(-c2cc(C(=O)O)c(NC(=O)Nc3c(Cl)cccc3Cl)s2)cn1` [Example 422, 2-({[(2,6-dichlorophenyl)amino]carbonyl}amino)-5-(1-methyl-1H-pyrazol-4-yl)-3-thiophenecarboxylic acid] reads 6340 nM.
Consider `Cn1cc(-c2cc(C(=O)N[C@H](C(=O)O)C3CCCCC3)c(NC(=O)Nc3c(Cl)cccc3Cl)s2)cn1` [Example 423, (2S)-cyclohexyl({[2-({[(2,6-dichlorophenyl)amino]carbonyl}amino)-5-(1-methyl-1H-pyrazol-4-yl)-3-thienyl]carbonyl}amino)ethanoic acid], for which 260 nM corresponded to half-maximal inhibition (IC50).
`COc1ccc(-c2cc(C(=O)O)c(NC(=O)Nc3c(C)cc(C)cc3C)s2)cc1` [Example 424, 5-[4-(methyloxy)phenyl]-2-({[(2,4,6-trimethylphenyl)amino]carbonyl}amino)-3-thiophenecarboxylic acid] yielded an IC50 of 290 nM.
In the case of `COc1ccc(-c2cc(C(=O)N[C@H](C(=O)O)C3CCCCC3)c(NC(=O)Nc3c(C)cc(C)cc3C)s2)cc1` [Example 425, (2S)-cyclohexyl({[5-[4-(methyloxy)phenyl]-2-({[(2,4,6-trimethylphenyl)amino]carbonyl}amino)-3-thienyl]carbonyl}amino)ethanoic acid] it was 16 nM; in that of `COc1ccc(-c2cc(C(=O)O)c(NC(=O)Nc3c(Cl)cc(OC(F)(F)F)cc3Cl)s2)cc1` [Example 426, 2-{[({2,6-dichloro-4-[(trifluoromethyl)oxy]phenyl}amino)carbonyl]amino}-5-[4-(methyloxy)phenyl]-3-thiophenecarboxylic acid], 1310 nM.
In the case of `COc1ccc(-c2cc(C(=O)N[C@H](C(=O)O)C3CCCCC3)c(NC(=O)Nc3c(Cl)cc(OC(F)(F)F)cc3Cl)s2)cc1` [Example 427, (2S)-cyclohexyl[({2-{[({2,6-dichloro-4-[(trifluoromethyl)oxy]phenyl}amino)carbonyl]amino}-5-[4-(methyloxy)phenyl]-3-thienyl}carbonyl)amino]ethanoic acid] it was 27 nM; in that of `O=C(Nc1sc(-c2ccc(OC(F)(F)F)cc2)cc1C(=O)O)Nc1c(Cl)cc(OC(F)(F)F)cc1Cl` [Example 428, 2-{[({2,6-dichloro-4-[(trifluoromethyl)oxy]phenyl}amino)carbonyl]amino}-5-{4-[(trifluoromethyl)oxy]phenyl}-3-thiophenecarboxylic acid], 1220 nM; in that of `O=C(Nc1sc(-c2ccc(OC(F)(F)F)cc2)cc1C(=O)N[C@H](C(=O)O)C1CCCCC1)Nc1c(Cl)cc(OC(F)(F)F)cc1Cl` [Example 429, (2S)-cyclohexyl{[(2-{[({2,6-dichloro-4-[(trifluoromethyl)oxy]phenyl}amino)carbonyl]amino}-5-{4-[(trifluoromethyl)oxy]phenyl}-3-thienyl)carbonyl]amino}ethanoic acid], 96 nM.
The compound `Cc1cc(C)c(NC(=O)Nc2sc(-c3ccc(OC(F)(F)F)cc3)cc2C(=O)O)c(C)c1` [Example 430, 5-{4-[(trifluoromethyl)oxy]phenyl}-2-({[(2,4,6-trimethylphenyl)amino]carbonyl}amino)-3-thiophenecarboxylic acid] returned a half-inhibitory concentration (IC50) of 740 nM.
`Cc1cc(C)c(NC(=O)Nc2sc(-c3ccc(OC(F)(F)F)cc3)cc2C(=O)N[C@H](C(=O)O)C2CCCCC2)c(C)c1` [Example 431, (2S)-cyclohexyl({[5-{4-[(trifluoromethyl)oxy]phenyl}-2-({[(2,4,6-trimethylphenyl)amino]carbonyl}amino)-3-thienyl]carbonyl}amino)ethanoic acid] had an IC50 of 330 nM.
As for `COc1ccc(-c2cc(NC(=O)Nc3c(Cl)cc(OC(F)(F)F)cc3Cl)c(C(=O)O)s2)cc1` [Example 432, 3-{[({2,6-dichloro-4-[(trifluoromethyl)oxy]phenyl}amino)carbonyl]amino}-5-[4-(methyloxy)phenyl]-2-thiophenecarboxylic acid], inhibition was half-maximal at 2700 nM (IC50).
The result for `COc1ccc(-c2cc(NC(=O)Nc3c(Cl)cc(OC(F)(F)F)cc3Cl)c(C(=O)N[C@H](C(=O)O)C3CCCCC3)s2)cc1` [Example 433, (2S)-cyclohexyl[({3-{[({2,6-dichloro-4-[(trifluoromethyl)oxy]phenyl}amino)carbonyl]amino}-5-[4-(methyloxy)phenyl]-2-thienyl}carbonyl)amino]ethanoic acid] reads 80 nM; that for `O=C(Nc1cc(-c2ccc(OC(F)(F)F)cc2)sc1C(=O)O)Nc1c(Cl)cccc1Cl` [Example 434, 3-({[(2,6-dichlorophenyl)amino]carbonyl}amino)-5-{4-[(trifluoromethyl)oxy]phenyl}-2-thiophenecarboxylic acid], 2120 nM; that for `O=C(Nc1cc(-c2ccc(OC(F)(F)F)cc2)sc1C(=O)N[C@H](C(=O)O)C1CCCCC1)Nc1c(Cl)cccc1Cl` [Example 435, (2S)-cyclohexyl{[(3-({[(2,6-dichlorophenyl)amino]carbonyl}amino)-5-{4-[(trifluoromethyl)oxy]phenyl}-2-thienyl)carbonyl]amino}ethanoic acid], 1630 nM.
In the case of `Cc1cc(C)c(NC(=O)Nc2cc(-c3ccc(OC(F)(F)F)cc3)sc2C(=O)O)c(C)c1` [Example 436, 5-{4-[(trifluoromethyl)oxy]phenyl}-3-({[(2,4,6-trimethylphenyl)amino]carbonyl}amino)-2-thiophenecarboxylic acid] it was 1570 nM; in that of `Cc1cc(C)c(NC(=O)Nc2cc(-c3ccc(OC(F)(F)F)cc3)sc2C(=O)N[C@H](C(=O)O)C2CCCCC2)c(C)c1` [Example 437, (2S)-cyclohexyl({[5-{4-[(trifluoromethyl)oxy]phenyl}-3-({[(2,4,6-trimethylphenyl)amino]carbonyl}amino)-2-thienyl]carbonyl}amino)ethanoic acid], 220 nM.
Compound `COc1ccc(-c2cc(NC(=O)Nc3c(C)cc(C)cc3C)c(C(=O)O)s2)cc1` [Example 438, 5-[4-(methyloxy)phenyl]-3-({[(2,4,6-trimethylphenyl)amino]carbonyl}amino)-2-thiophenecarboxylic acid] gave an IC50 of 330 nM.
